We go through two molecules from ChEMBL document CHEMBL6153074, “Discovery of novel dual tubulin and MMPs inhibitors for the treatment of lung cancer and overcoming drug resistance” (Eur J Med Chem, 2025).

SMILES strings stand for the structures. Active and inactive are the calls of the source. The calls are words filed in the database; no cut-off is given here.

A short description of data set [1]: Antiproliferative activity against human MCF-10A cells by CCK8 assay. The format is toxicity, cell-based. In general terms: Formazan colour is commonly taken as a measure of viable cells.
Data set [2] deals with A549. In words: Induction of apoptosis in human A549 cells assessed as viable cells at 0.5 uM incubated for 24 hrs by Annexin V-FITC/PI staining based flow cytometry (reference value: 95.82 %). It counts as functional. The conditions noted are these: read-out: Activity. On the technique in general: In flow cytometry, cells or beads pass a laser one at a time.
Data set [3] relates to A549. The data set can be described thus: Anti-migration activity in human A549 cells assessed as migration rate at 0.5 uM incubated for 24 hrs by wound healing assay (reference value: 73.94 %). The format is functional.
For data set [4], the system named is A549. The data set can be described thus: Induction of intracellular ROS accumulation in human A549 cells at 0.5 uM incubated for 24 hrs by DCFH-DA dye based flow cytometry (reference value: 4.96 %). It counts as functional.
Data set [5] in a line: Selectivity index, ratio of IC50 for antiproliferative activity against human MCF-10A cells to IC50 for antiproliferative activity against human MCF7 cells. It counts as toxicity, cell-based. The following applies: MCF-10A cells and MCF7 cells, read-out: Ratio IC50.
Data set [6] relates to A549. In words: Induction of apoptosis in human A549 cells assessed as necrotic cells at 0.5 uM incubated for 24 hrs by Annexin V-FITC/PI staining based flow cytometry (reference value: 0.13 %). It counts as functional.
The test system of data set [7] is A549. The data set can be described thus: cells. The conditions noted are these: Homo sapiens.
Description: Antiproliferative activity against human A549 cells by CCK8 assay
Data set [8] has as its system A549. The data set can be described thus: Induction of cell cycle arrest in human A549 cells assessed as accumulation at S phase at 0.5 uM incubated for 24 hrs by PI staining based flow cytometry (reference value: 37.95 %). The format is functional.
Data set [9] relates to A549. In words: Induction of mitochondrial membrane potential loss in human A549 cells at 0.5 uM incubated for 24 hrs by JC-1 dye based analysis (reference value: 3.14 %). The format is functional.
The next data set has as its system MDA-MB-231. In words: Antiproliferative activity against human MDA-MB-231 cells by CCK8 assay.
Another data set deals with NCI-H460. The data set can be described thus: Antiproliferative activity against human NCI-H460 cells by CCK8 assay.
In data set [10] the test system is A549. In words: Induction of apoptosis in human A549 cells assessed as late apoptotic cells at 0.5 uM incubated for 24 hrs by Annexin V-FITC/PI staining based flow cytometry (reference value: 1.01 %). It counts as functional.
In data set [11] the test system is A549. In words: Induction of cell cycle arrest in human A549 cells assessed as accumulation at G2 phase at 0.5 uM incubated for 24 hrs by PI staining based flow cytometry (reference value: 3.37 %). The format is functional.
The subject of data set [12] is A549. In words: Induction of apoptosis in human A549 cells assessed as early apoptotic cells at 0.5 uM incubated for 24 hrs by Annexin V-FITC/PI staining based flow cytometry (reference value: 3.04 %). It counts as functional.
Data set [13] concerns A549. The data set can be described thus: Induction of cell cycle arrest in human A549 cells assessed as accumulation at G1 phase at 0.5 uM incubated for 24 hrs by PI staining based flow cytometry (reference value: 58.67 %). The format is functional.
Data set [14] can be described thus: Antiproliferative activity against human L02 cells by CCK8 assay. The format is toxicity, cell-based.
The test system of the next data set is MCF7. The data set can be described thus: Antiproliferative activity against human MCF7 cells by CCK8 assay.
For data set [15], the target named is T1, Tubulin (Homo sapiens) (UniProt P68371+Q9H4B7+P0DPH7+P68366+Q13509+Q71U36+P04350+Q3ZCM7+P07437+P68363+Q9BQE3+Q6PEY2+Q13885+Q9BVA1+Q9BUF5). The data set can be described thus: Disruption of microtubule network in human A549 cells assessed as contraction towards cell border at 5 uM incubated for 24 hrs by immunofluorescence based analysis.
Data set [16] deals with T1, Tubulin (Homo sapiens). The data set can be described thus: Disruption of microtubule network in human A549 cells assessed as cell disorganisation at 5 uM incubated for 24 hrs by immunofluorescence based analysis.
The test system of data set [17] is A549. In words: Antitumor activity against human A549 cells xenografted in BALB/c mouse at 20 mg/kg, ip for 3 weeks administered on every 2 days relative to control. It counts as functional. The conditions noted are these: A549, 504 h, read-out: TGI.
Data set [18] can be described thus: Selectivity index, ratio of IC50 for antiproliferative activity against human L02 cells to IC50 for antiproliferative activity against human A549 cells. The conditions noted are these: L02 cells and A549 cells, read-out: Ratio IC50. The format is toxicity, cell-based.
Data set [19] addresses 72 kDa type IV collagenase (Homo sapiens, UniProt P08253). The data set can be described thus: Inhibition of MMP-2 (unknown origin) using fluorogenic-McaPro-Leu-Gly-Leu-Dpa-Ala-Arg-NH2 as substrate.
Data set [20] has as its target Matrix metalloproteinase-9 (Homo sapiens, UniProt P14780). In words: Inhibition of MMP-9 (unknown origin) using fluorogenic-McaPro-Leu-Gly-Leu-Dpa-Ala-Arg-NH2 as substrate.
A further data set concerns the target Stromelysin-1 (Homo sapiens, UniProt P08254). The data set can be described thus: Inhibition of MMP-3 (unknown origin) using fluorogenic-McaPro-Leu-Gly-Leu-Dpa-Ala-Arg-NH2 as substrate.

Sequence of Matrix metalloproteinase-9 (P14780 whole entry): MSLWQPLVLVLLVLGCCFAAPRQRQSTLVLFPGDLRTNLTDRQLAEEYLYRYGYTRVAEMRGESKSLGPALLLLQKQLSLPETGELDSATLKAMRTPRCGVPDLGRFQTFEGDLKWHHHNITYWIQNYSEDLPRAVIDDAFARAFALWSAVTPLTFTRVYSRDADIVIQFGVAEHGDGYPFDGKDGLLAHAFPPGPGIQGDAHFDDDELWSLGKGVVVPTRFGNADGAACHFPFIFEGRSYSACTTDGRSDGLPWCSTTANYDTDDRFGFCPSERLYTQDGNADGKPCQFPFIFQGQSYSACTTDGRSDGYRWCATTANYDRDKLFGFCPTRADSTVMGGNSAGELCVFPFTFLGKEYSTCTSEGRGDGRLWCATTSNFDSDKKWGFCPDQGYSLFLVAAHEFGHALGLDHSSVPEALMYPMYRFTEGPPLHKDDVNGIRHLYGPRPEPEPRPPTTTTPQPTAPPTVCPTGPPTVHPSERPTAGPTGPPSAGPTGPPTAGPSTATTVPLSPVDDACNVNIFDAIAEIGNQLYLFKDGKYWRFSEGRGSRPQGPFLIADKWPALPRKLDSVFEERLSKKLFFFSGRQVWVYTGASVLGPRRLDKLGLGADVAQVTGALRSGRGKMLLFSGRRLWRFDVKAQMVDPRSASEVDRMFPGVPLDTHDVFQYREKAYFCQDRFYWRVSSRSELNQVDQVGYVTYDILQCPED
Sequence of Stromelysin-1 (P08254 whole entry): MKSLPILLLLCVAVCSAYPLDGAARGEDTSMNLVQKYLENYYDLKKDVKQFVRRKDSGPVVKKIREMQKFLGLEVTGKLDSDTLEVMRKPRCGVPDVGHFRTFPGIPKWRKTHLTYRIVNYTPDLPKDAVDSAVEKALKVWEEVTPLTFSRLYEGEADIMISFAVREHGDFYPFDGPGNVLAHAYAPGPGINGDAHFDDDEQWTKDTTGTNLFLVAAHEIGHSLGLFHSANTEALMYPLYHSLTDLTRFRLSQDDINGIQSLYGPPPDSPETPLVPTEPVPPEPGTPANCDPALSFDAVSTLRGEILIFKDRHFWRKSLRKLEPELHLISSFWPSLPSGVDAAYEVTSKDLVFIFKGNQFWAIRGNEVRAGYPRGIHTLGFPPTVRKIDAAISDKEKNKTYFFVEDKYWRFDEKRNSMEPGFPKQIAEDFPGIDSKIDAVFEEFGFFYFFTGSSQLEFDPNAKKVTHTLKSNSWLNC
Sequence of 72 kDa type IV collagenase (P08253 whole entry): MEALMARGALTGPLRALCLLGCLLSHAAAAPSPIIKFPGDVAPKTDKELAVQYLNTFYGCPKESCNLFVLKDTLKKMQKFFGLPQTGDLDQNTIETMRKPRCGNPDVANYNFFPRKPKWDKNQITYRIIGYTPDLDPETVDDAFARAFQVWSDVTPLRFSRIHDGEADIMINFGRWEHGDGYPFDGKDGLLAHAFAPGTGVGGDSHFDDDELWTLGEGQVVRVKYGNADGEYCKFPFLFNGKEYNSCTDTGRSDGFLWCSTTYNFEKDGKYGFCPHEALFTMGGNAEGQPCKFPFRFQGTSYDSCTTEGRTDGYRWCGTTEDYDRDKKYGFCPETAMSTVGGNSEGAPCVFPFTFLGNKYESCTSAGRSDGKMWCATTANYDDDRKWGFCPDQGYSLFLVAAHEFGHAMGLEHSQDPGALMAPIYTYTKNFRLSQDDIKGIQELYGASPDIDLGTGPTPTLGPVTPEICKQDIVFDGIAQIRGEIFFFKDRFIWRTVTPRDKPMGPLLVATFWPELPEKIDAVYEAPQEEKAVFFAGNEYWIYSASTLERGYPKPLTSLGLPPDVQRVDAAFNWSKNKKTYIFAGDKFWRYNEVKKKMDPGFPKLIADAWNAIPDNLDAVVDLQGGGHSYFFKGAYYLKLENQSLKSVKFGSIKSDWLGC

As to `COc1ccc(/C=C/C(=O)c2cc(OC)c(OC)c(OC)c2)cc1O`, the IC50 was 967 nM in data set [1]; 456 nM with A549 [7]; 808 nM with MDA-MB-231; 538 nM in the data set with NCI-H460; 1090 nM in [14]; 722 nM in the data set on MCF7. Besides, the viability at 0.5 µM in the data set with A549 [2] was determined as 69.5%. The Activity is 45.16% with A549 [3]; 54.64% with A549 [4]; 0.84% in the data set on A549 [6]; 14.34% with A549 [8]; 40.88% in the data set with A549 [9]; 5.23% in the data set on A549 [10]. Also, the results for the Activity in the data set with A549 [11], with A549 [12] and in the data set with A549 [13] were 69.1%, 24.49% and 16.56%, respectively. For the same molecule, the selectivity ratio came to 1.34 in [5] and 2.4 in data set [18]. Moreover, the outcome on Tubulin (Homo sapiens) [15] and at Tubulin (Homo sapiens) [16] was Active. In addition, the inhibition in vivo at 20 mg/kg in the data set with A549 [17] is 64.7%.
Turning to `Cc1ccc2nc(-c3cccc(NC(=O)CCc4ccccc4)c3)[nH]c2c1`, the IC50 in data set [19] came out at 36400 nM; in [20], 28400 nM; against Stromelysin-1, 46300 nM.

The IC50 is the midpoint of a concentration-inhibition curve. Higher therefore signals weaker potency.
